Some test systems named below: 786-0 renal; EKVX NSCLC; HCC-2998 colon; HCT-15 colon; HOP-62 NSCLC; KM12 colon; MCF7 breast; COLO 205 colon; NCI-H226 lung.
Common to all, as to assay: NCI-60 cell line screen, 48 h

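Tested at 5 concentrations; 48 h exposure; 96-well plates; endpoints linearly interpolated, else capped at highest concentration. GI50 is the concentration that inhibits growth by half. TGI is the concentration that stops growth completely.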 A value given as a limit tells only on which side of the number the result lay.

For the compound `CC1(C)[C@@H](OC(=O)CCC(=O)O)CC[C@]2(C)[C@H]3C(=O)C=C4[C@@H]5C[C@@](C)(C(=O)O)CC[C@]5(C)CC[C@@]4(C)[C@]3(C)CC[C@@H]12`, the GI50 was 58.8 µM with 786-0 renal; 52.9 µM in the test on EKVX NSCLC; 56.1 µM in the test with HCC-2998 colon; 51.1 µM in the test with HCT-15 colon; 53.9 µM with HOP-62 NSCLC; 54.9 µM in the test on KM12 colon. Further, the GI50 in the test on MCF7 breast was 54.7 µM. Also, the TGI in the test with 786-0 renal turned out to be 104 µM; with EKVX NSCLC, 84.8 µM; with HCC-2998 colon, 80.5 µM; in the test with HCT-15 colon, 78.7 µM; in the test on HOP-62 NSCLC, 79.5 µM; in the test with KM12 colon, 84.1 µM. In the test with MCF7 breast, this compound had a TGI of 136 µM.

On to `OCCN1CCN2C=C(C3CCCC4N(CCO)CCN34)CCC21` (configuration not stated), for which the TGI in the test with 786-0 renal, with COLO 205 colon, in the test on EKVX NSCLC, in the test with HCC-2998 colon, in the test on HCT-15 colon and with HOP-62 NSCLC was more than 100 µM in each case. In addition, the TGI in the test with KM12 colon and with NCI-H226 lung was more than 100 µM in each case.

Regarding `OCc1ccc(N2CCc3ccccc3C2)cc1Cl`, the GI50 in the test with 786-0 renal was 16.6 µM; in the test on COLO 205 colon, 0.0136 µM; with HCC-2998 colon, 1.15 µM; in the test on HCT-15 colon, 3.35 µM; with HOP-62 NSCLC it was 0.0222 µM; in the test with KM12 colon, 13.6 µM. Besides, the GI50 in the test with MCF7 breast is less than 0.01 µM; in the test with NCI-H226 lung, 0.0134 µM. Besides, the TGI in the test on 786-0 renal came to 51.7 µM; in the test with COLO 205 colon it was 0.0619 µM; in the test on HCC-2998 colon it was 7.11 µM; in the test with HCT-15 colon, 41.6 µM; in the test with HOP-62 NSCLC, 24.7 µM; with KM12 colon, 40.1 µM. Moreover, the figures for the TGI with MCF7 breast and in the test on NCI-H226 lung were 55.3 µM and 0.0768 µM, respectively.

Take `NN1C(=O)C(CCO)S/C1=N/N=C1/SC(CCO)C(=O)N1N` (configuration not stated): the TGI in the test with 786-0 renal, in the test on COLO 205 colon, in the test on EKVX NSCLC, in the test on HCC-2998 colon, in the test on HCT-15 colon and in the test on HOP-62 NSCLC was more than 100 µM each time. Also, the TGI in the test with KM12 colon and in the test with NCI-H226 lung was more than 100 µM each time.

For `N/N=c1\c2ccccc2c2cc3c(cc12)/c(=N/N)c1ccccc13`, the TGI in the test with 786-0 renal, in the test on COLO 205 colon, in the test with EKVX NSCLC, with HCC-2998 colon, in the test on HCT-15 colon and with HOP-62 NSCLC was more than 100 µM in each case. Besides, the TGI in the test on KM12 colon and in the test with NCI-H226 lung was more than 100 µM each time.

With `CC#CC1C2CCCC1(CSc1ccccc1)NC(=O)O2` (configuration not stated), the TGI in the test on 786-0 renal, in the test on COLO 205 colon, in the test on EKVX NSCLC, in the test with HCC-2998 colon, in the test with HCT-15 colon and with HOP-62 NSCLC was more than 100 µM in each case. Further, the TGI in the test on KM12 colon and with NCI-H226 lung was more than 100 µM each time.

With `CC(=O)[CH-]C(=O)c1ccccc1.CC(=O)[CH-]C(=O)c1ccccc1.C[C@]12CCC(=O)C=C1CC[C@@H]1C2CC[C@@]2(C)C1CC[C@@H]2[O-].C[C@]12CCC(=O)C=C1CC[C@@H]1C2CC[C@@]2(C)C1CC[C@@H]2[O-].Cl.[Ti+4]` (some centres not stated), the GI50 is 13.5 µM in the test on 786-0 renal; 37 µM with COLO 205 colon; 21.8 µM in the test on HCC-2998 colon; 15.2 µM in the test with HCT-15 colon; 20.6 µM with HOP-62 NSCLC; 20.3 µM in the test with KM12 colon. Further, the GI50 in the test on NCI-H226 lung is 12.9 µM. The TGI in the test on 786-0 renal is 26.3 µM; in the test with COLO 205 colon, more than 100 µM; with HCC-2998 colon it was 42.2 µM; in the test with HCT-15 colon, 43 µM; in the test with HOP-62 NSCLC, 59.9 µM; in the test on KM12 colon it was 66.2 µM. Besides, the TGI in the test with NCI-H226 lung came out at 35.2 µM.

In the case of `c1ccc2c(c1)N=C(c1cccc3ccccc13)CC(c1ccc3c(c1)OCO3)S2` (configuration not stated), the TGI with 786-0 renal, with COLO 205 colon, in the test on EKVX NSCLC, with HCC-2998 colon, in the test with HOP-62 NSCLC and in the test with KM12 colon was more than 100 µM in each case. In the test on NCI-H226 lung, this compound came in with a TGI of more than 100 µM.

Turning to `O=C(/C(=C\c1ccc(Cl)cc1)c1ccccc1)c1ccccc1`, the TGI in the test with 786-0 renal, with COLO 205 colon, with EKVX NSCLC, in the test with HCC-2998 colon, in the test with HCT-15 colon and in the test with HOP-62 NSCLC was more than 100 µM each time. In addition, the TGI is 74.3 µM with KM12 colon and more than 100 µM in the test with NCI-H226 lung.

For the compound `CC(C)NC(=O)CCN(C(=O)O)S(=O)(=O)c1ccc(NC(=O)c2ccccc2)cc1`, the TGI was more than 100 µM in the test on 786-0 renal; more than 58.5 µM in the test with COLO 205 colon; more than 100 µM in the test with EKVX NSCLC; more than 100 µM in the test on HCC-2998 colon; more than 59.8 µM with HCT-15 colon; more than 100 µM in the test with HOP-62 NSCLC. The TGI with KM12 colon and with NCI-H226 lung was more than 100 µM each time.

Turning to `Cc1ccc(NC(=O)/C(Cl)=C(/Cl)C(=O)O)cc1`, the TGI is 32.6 µM in the test with 786-0 renal; 20.3 µM in the test on COLO 205 colon; 31.2 µM with EKVX NSCLC; 34.3 µM in the test on HCC-2998 colon; 28.9 µM in the test with HCT-15 colon; more than 100 µM in the test on HOP-62 NSCLC. For the same compound, the TGI with KM12 colon is 34.6 µM; with NCI-H226 lung, more than 100 µM.

As to `Cc1ccc(S(=O)OCC23CC4CC(CC(C4)C2)C3)cc1` (configuration not stated), the TGI in the test on 786-0 renal, in the test with COLO 205 colon, in the test with EKVX NSCLC, in the test with HCC-2998 colon, in the test with HCT-15 colon and in the test on HOP-62 NSCLC was more than 100 µM throughout. The TGI in the test with KM12 colon and in the test on NCI-H226 lung was more than 100 µM throughout.

On to `O=C(COC(=O)c1cccc2c(=O)c3ccccc3[nH]c12)Nc1ccc(C(=O)O)cc1`, for which the TGI in the test on 786-0 renal, in the test with COLO 205 colon, in the test on EKVX NSCLC, in the test with HCC-2998 colon, in the test on HOP-62 NSCLC and in the test with KM12 colon was more than 100 µM in each case. In addition, the TGI with NCI-H226 lung is more than 10 µM.

Values taken from PubChem BioAssay (NCI).
